This note sets out measurements from US7758903B2, “Cytokine modulators and related methods of use” (Access Business Group International LLC, priority 2003, dated 2010).

Converted amounts (≈) assume the structure as drawn. Read-outs that look alike come from different tables or passages of the source.

In assay [1] the test system is IL-1 secretion, THP-1 cells. The assay can be described thus: LPS-stimulated IL-1 secretion by THP-1 cells, IL-1 ELISA of supernatant. Particulars: IL-1 in supernatant, THP-1 cells pre-treated 4 hours, LPS 100 nanograms/ml 16 hours; for EC50: Homo sapiens, read-out: EC 50 in ug/ml (50% Effective Dose in vitro). The class given is cell-based, human.
Procedure: For this evaluation, white blood cells were dosed with varying concentrations of the ingredients. An inflammatory stimulus, lipopolysaccharide (LPS), was then added to the ingredient-plus-cell culture, as well as untreated control samples of white blood cells. The production of the IL-1 cytokine of both the ingredient-treated cells and the untreated cells was compared to extrapolate the concentration of the ingredient that causes a 50% change in the concentration of IL-1 produced by the cells.
To perform the evaluation of inhibiting interleukin synthesis of this example, human white blood cells, specifically THP-1 cells obtained from ATCC of Manassas, Va., were grown under conditions recommended by ATCC in a humidified 37° C. incubator, which was supplied with 5% carbon dioxide. To test the IL-1 inhibitory potential of various compounds, multiple groups of THP-1 cells were plated in 96 well plates. […] With these cell samples plated, they were then dosed.
In dosing, each of the ingredients was administered to the plated THP-1 cells in varying doses, specifically, 100 ug/ml, 10 ug/ml, 1 ug/ml and 0 ug/ml. […] The THP-1 cells, now dosed with the desired ingredients, were returned to the incubator and incubated for 4 hours under the same conditions.
Thereafter, a known inflammatory stimulator, lipopolysaccharide (LPS) was added to each well plate to a final concentration of 100 nanograms/ml. The LPS treated cultures were returned to the incubator for an additional 16 hours. […]
Thereafter, the liquids from each of the wells were removed and the coated plate was washed 3 times in a wash buffer. […] The reaction of the substrate solution (TMB) and the horseradish peroxidase conjugated to the anti-IL-1 antibody produces a colored product with specific spectral absorbance at wavelength of 450 nm.
The calibration standard samples were subjected to the same protocol as the supernatant samples to determine the IL-1 present in those calibration samples. […] The optical density of the standard calibration samples were then plotted to determine a standardized IL-1 absorbance calibration curve.
Assay [2] relates to IL-1 secretion, THP-1 cells. Put plainly: Synergy or interference of other ingredients with optional primary ingredients in inhibiting LPS-stimulated IL-1 secretion. The class given is cell-based, human. The arrangement: key: a “+” indicates interference or synergy, respectively as shown; a “−” indicates no interference or no synergy.
Procedure: Specifically, the release of IL-1 from the THP-1 cells after exposure to lipopolysaccharide (LPS) with or without pre-treatment in varying doses of the other ingredients, or a combination of those other ingredients with optional primary ingredients, was measured to evaluate the effects of the other ingredients on monocyte IL-1α secretion.
The other ingredients tested were: blackberry extract, blueberry extract, cranberry extract, rosemary extract, clove extract and resveratrol.
In Table IV, a “−” indicates no interference or no synergy, and a “+” indicates interference or synergy, respectively as shown.
The subject of assay [3] is IL-1/IL-6 Stimulated CRP Secretion, hepatocytes. The assay can be described thus: IL-1/IL-6 stimulated CRP secretion by primary hepatocytes, CRP ELISA of supernatant. Type of assay: cell-based. The settings on record: Homo sapiens, Hepatocyte.
Procedure: Hepatocytes' response to IL-1 expression levels was evaluated by measuring CRP in the culture supernatant after exposure of the hepatocytes to IL-1 and IL-6 with or without pre-treatment with varying doses of the other ingredients.
The IL-1 response effects were evaluated in hepatocytes by measuring the secretion of CRP when the hepatocytes were exposed to IL-1α and IL-6 with or without pre-treatment with varying doses of the other ingredients. […] Thus, by measuring CRP secreted by the hepatocytes, the degree of cells' response to IL-1 and/or IL-6 is able to be determined.
To perform the evaluation of this example, human primarily isolated hepatocyte cells, obtained from In vitro Technology of Baltimore, Md., were restored under the conditions recommended by In vitro Technology in a humidified 37° C. incubator, which was supplied with 5% carbon dioxide. To test the CRP response potential of various compounds, multiple groups of hepatocytes were plated in 96 well plates. Specifically, 1×10^4 cells were plated in hepatocyte media supplement with 10% fetal bovine serum which were then exposed with varying doses, specifically, 100 ug/ml, 10 ug/ml, 1 ug/ml and 0 ug/ml of test ingredients. […]

`O=C(O[C@@H]1Cc2c(O)cc(O)cc2O[C@@H]1c1cc(O)c(O)c(O)c1)c1cc(O)c(O)c(O)c1` [Epigallocatechin gallate]: in assay [1], the “EC 50 in ug/ml (50% Effective Dose in vitro)” value is under 1 µg/mL.
For the compound `COc1cc(/C=C/C(=O)O)ccc1O` [Ferulic acid], in assay [1], the EC50 amounted to 10 µg/mL (≈ 51.5 µM).
The same measure, in the same setting: for `CC(C)Oc1ccc2c(=O)c(-c3ccccc3)coc2c1` [Ipriflavone, reference compound] the value was under 1 µg/mL.
`Oc1ccc(C=Cc2cc(O)cc(O)c2)cc1` [Resveratrol]: the “Interference +/−” value in assay [2] (with Artichoke), in assay [2] (with Nettle Root), in assay [2] (with Olive Extract) and in assay [2] (with Rosehips) was “−” each time. For the same compound, the “Synergy +/−” value in assay [2] (with Artichoke), in assay [2] (with Nettle Root), in assay [2] (with Olive Extract) and in assay [2] (with Rosehips) was “−” throughout. For the same compound, the EC50 in assay [3] (IL-1/IL-6 stimulated CRP secretion, hepatocytes, Example 2, read-out: CRP EC 50 in ug/ml (50% Effective Dose in vitro)) was 1 to 10 µg/mL (≈ 4.38 to 43.8 µM); in assay [3] (hepatocytes activated via IL-1 and IL-6 (1 ng/ml each), read-out: EC50 of CRP secretion inhibition) it was 1 to 10 µg/mL (≈ 4.38 to 43.8 µM).
